# Measured values published in US20260250318A1, “COMPOSITIONS AND METHODS FOR CROSSING THE BLOOD BRAIN BARRIER” (VOYAGER THERAPEUTICS, INC., priority 2022, published 2026).
# What was measured:
# Conditions in all cases: synthetic library passage 3, intravenous, relative to wild-type AAV9
# [1] = test system: brain, spinal cord, and DRG of the NHPs; test: NGS fold enrichment of synthetic library (passage 3) in NHPs, first cross-species screen; assay type: in vivo, cynomolgus macaques (Macaca fascicularis)
# In short: (§1)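 Fold enrichment versus wild-type AAV9 was derived by NGS of RT-PCR-amplified RNA from nervous tissue, collected e.g. 28 days after IV dosing […]. The library (passage 3) was given to two NHPs aged 2-4 years and to 6-8-week BALB/c and C57Bl/6 mice (n=3 each).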
# [2] = test system: brain; test: NGS fold enrichment of synthetic library (passage 3) in BALB/c mice, first cross-species screen; assay type: in vivo
# In short: as §1
# [3] = test system: brain; test: NGS fold enrichment of synthetic library (passage 3) in C57Bl/6 mice, first cross-species screen; assay type: in vivo
# In short: as §1
# [4] = RNA from spinal cord of NHPs, NGS
# [5] = RNA from brain of BALB/c mice, NGS
# [6] = RNA from brain of C57Bl/6 mice, NGS
Sequence,"Fold enrichment over AAV9 in the brain of NHPs ([1]; RNA from brain of NHPs, NGS) [fold]","Fold enrichment over AAV9 in the spinal cord of NHPs [1, 4] [fold]","Fold enrichment over AAV9 in the brain of Mice (BALB/c) [2, 5] [fold]","Fold enrichment over AAV9 in the brain of Mice (C57Bl/6) [3, 6] [fold]","Fold enrichment over AAV9 in the brain of NHPs ([1]; RNA NGS, brain of NHPs) [fold]","Fold enrichment over AAV9 in the spinal cord of NHPs ([1]; RNA NGS, spinal cord of NHPs) [fold]","Fold enrichment over AAV9 in the brain of Mice (BALB/c) ([2]; RNA NGS, brain of BALB/c mice) [fold]","Fold enrichment over AAV9 in the brain of Mice (C57Bl/6) ([3]; RNA NGS, brain of C57Bl/6 mice) [fold]"
GSGQMQPHVQNQQT,1.389,9.381,0.153,0.387,–,–,–,–
GSGTLYPQSQNQQT,–,–,–,–,2.761,5.558,0.160,0.324
GSGQLIASVVNQQT,–,–,–,–,1.005,0.086,0.359,0.197
GSTVQDTRGQNQQT,–,–,–,–,2.270,4.979,0.473,0.576
GSGQVAYAQGNQQT,1.259,1.309,0.313,0.734,–,–,–,–
GSGHPYKAAQNQQT,1.246,0.000,0.507,0.872,–,–,–,–
GNILHATSGQNQQT,–,–,–,–,2.136,0.125,0.424,1.159
GSGQNQQLPHSNLT,–,–,–,–,1.521,1.838,0.283,0.442
GSGLTLSATQNQQT,–,–,–,–,1.901,0.193,0.340,0.708
GSGQNQQTSMSNAT,–,–,–,–,1.501,6.766,0.745,1.605
GSGQNQQYAGKILT,–,–,–,–,1.112,0.300,0.431,1.078
GLHGMTLSGQNQQT,1.226,3.552,0.338,0.470,–,–,–,–
GSGQNQGRAHPMQT,–,–,–,–,1.007,2.364,0.453,0.684
GASHMSISGQNQQT,1.284,0.462,0.374,0.404,–,–,–,–
GSGSHRDVSQNQQT,–,–,–,–,2.843,4.022,0.550,0.626
GVIVLHGSGQNQQT,–,–,–,–,1.682,14.166,1.098,1.074
GSGQNQQTMANGQR,1.394,0.216,1.230,1.169,–,–,–,–
GIMARDSSGQNQQT,–,–,–,–,1.972,3.486,0.904,1.320
GSGQNQQASLAMRT,–,–,–,–,1.910,3.577,1.638,2.066
GSAGISPSGQNQQT,–,–,–,–,1.797,1.812,0.622,0.784
